Results taken from patent US9867861B2, “Process for the large scale production of fruit cells and treatment of diseases with such cells” (priority 2012, dated 2018).

Tests used:
[1] = Solubility assay of resveratrol sources in water; format: physicochemical; settings: acidified water (pH=2) as well as pH 7.0
[2] = system: carrageenan induced rat paw edema; settings: resveratrol 50 mg/kg body weight before carrageenan; Gentilli et al (2001); cited from earlier work
[3] = system: carrageenan induced rat paw edema; experiment: Carrageenan induced rat paw edema, paw volume measurements; format: in vivo; settings: indomethacin 2 mg/kg 2 h before carrageenan; vs vehicle control
Excerpt: The aim of the present study was to evaluate the in vivo anti-inflammatory activity of RGC (Red Grape Cells) made according to the large scale process of the invention in an acute inflammation model in rats so as to verify the efficiency of the cells produced according to the invention. One of the experimental model most widely used to study acute inflammation in rodents is that based on the intraplantar administration of carrageenan. The study assessed the efficacy of the RGC by two methods: • 1. Paw volume measurements • 2. […] The rats in all groups were injected with 1% carrageenan (0.1 mg/paw) or sterile saline (0.9% NaCl) into the sub plantar tissue of left hind paw of each rat. • The Following Tests were Performed: • Paw Volumes Measurements • Carrageenan injected paw volumes were measured hourly just before carrageenan injection 0 and 1, 2, 4 hours after injection using caliper. • The paw dimensions were measured in two axes and paw volume was calculated. Paw edema volume in this model was an indication of the inflammation severity. • For each time point, the change in paw volume was calculated either by subtracting the baseline paw volume or as % of baseline paw volume. […]

[4] = system: carrageenan-induced hind paw inflammation (hyperalgesia); experiment: Hot plate method, inflammatory nociception in freely moving rats after carrageenan; format: in vivo, rat; settings: indomethacin 2 mg/kg, vs vehicle control
Protocol: The study assessed the efficacy of the RGC by two methods: • 1. Paw volume measurements • 2. Inflammatory nociception in freely moving rats Materials and Methods: Red Grape Cells (RGC) prepared according to example 1. • RGC was administered orally at dose of 400 mg/kg body weight (2 ml/40 mg) as a suspension in sterile drinking water, 2 h before carrageenan injection. • RGC Composition: […] Rats were divided into three groups of eight rats in each group. The rats in all groups were injected with 1% carrageenan (0.1 mg/paw) or sterile saline (0.9% NaCl) into the sub plantar tissue of left hind paw of each rat. • The Following Tests were Performed: • Paw Volumes Measurements • Carrageenan injected paw volumes were measured hourly just before carrageenan injection 0 and 1, 2, 4 hours after injection using caliper. • The paw dimensions were measured in two axes and paw volume was calculated. Paw edema volume in this model was an indication of the inflammation severity. • For each time point, the change in paw volume was calculated either by subtracting the baseline paw volume or as % of baseline paw volume. Hot Plate Method for Measuring Inflammatory Nociception in Freely Moving Rats The hot plate method was used to determine inflammatory nociception in freely moving rates. […]

Dissolution of RES in water, percentage compared to dissolution in 80% methanol [1] [%] | Compound | Paw edema [2] | Paw edema (volume %) [3] | Hot plate latency, % from baseline [4] | Hot plate latency delta, baseline-actual time ([4]; 2 and 4 h)
7 | Oc1ccc(/C=C/c2cc(O)cc(O)c2)cc1 [Synthetic-RES, trans-3,5,4′-trihydroxystilbene] | failed to reduce paw edema | – | – | –
– | COc1ccc2c(c1)c(CC(=O)O)c(C)n2C(=O)c1ccc(Cl)cc1 [indomethacin] | – | statistically significant difference at 2 and 4 h | statistically significant difference at 2 and 4 h | significant decrease in the latency delta
